Laboratory results: patent US11319526B2, “Methods and compositions for making antibodies and antibody derivatives with reduced core fucosylation” (Seagen Inc., priority 2008, dated 2022)
Read-outs that look alike come from different tables or passages of the source.

Tests used:
[1] = tested on: antibody core fucosylation in CHO DG44 cell line producing h1F6; test: Effect of fucose analogs on antibody core fucosylation (h1F6 from CHO DG44 culture); assay type: cell-based, Chinese hamster; details: day 5; for inhibition at 50 µM: 50 μM fucose analog; for inhibition at 1000 µM / Inhibition at 1 mM: 1 mM fucose analog
Experimental: Media was supplemented with insulin like growth factor (IGF), penicillin, streptomycin and either 1 mM or 50 μM of the fucose analog (prepared as described supra). On day 5 post inoculation, the culture was centrifuged at 13000 RPM for 5 minutes to pellet cells; antibodies were then purified from supernatant.
(§1) Antibody purification was performed by applying the conditioned media to protein A resin pre-equilibrated with 1× phosphate buffered saline (PBS), pH 7.4. After washing resin with 20 resin bed volumes of 1×PBS, antibodies were eluted with 5 resin bed volumes of Immunopure IgG elution buffer (Pierce Biotechnology, Rockford, Ill.). A 10% volume of 1M tris pH 8.0 was added to neutralize the eluted fraction.

[2] = tested on: CHO DG44 cell line producing h1F6; test: Incorporation of fucose analogs into antibodies (h1F6 from CHO DG44 culture); assay type: cell-based, Chinese hamster
Experimental: The effects of fucose analogs on antibody core fucosylation were tested at concentrations of […] and 1 mM as follows: A CHO DG44 cell line producing a humanized IgG1 anti-CD70 monoclonal antibody, h1F6 (see International Patent Publication WO 06/113909) was cultured at 7.5×10^5 cells per mL in 2 mLs of CHO culture media at 37°, 5% CO2 and shaking at 100 RPM in a 6 well tissue culture plate. Media was supplemented with insulin like growth factor (IGF), penicillin, streptomycin and either 1 mM or 50 μM of the fucose analog (prepared as described supra). On day 5 post inoculation, the culture was centrifuged at 13000 RPM for 5 minutes to pellet cells; antibodies were then purified from supernatant.
as §1, with “fraction. The amount of non-core fucosylated antibody produced was determined as described in Example 7.” for “fraction.”
Certain other fucose analogs were tested for their ability to be incorporated into antibodies. These fucose analogs were tested at concentrations of 50 μM and 1 mM using the methodology as described above and in Example 7.

[3] = Cricetulus griseus, CHO-DG44, 120 h, Table 1, inhibition of core fucosylation of h1F6, read-out: Inhibition at 50 μM
[4] = Cricetulus griseus, CHO-DG44, 120 h, Table 1, ND = non-core fucosylated antibody not detected due to poor antibody production or inhibition of cell growth
[5] = Cricetulus griseus, CHO-DG44, 120 h, Table 2, read-out: Inhibition at 50 μM
[6] = Cricetulus griseus, CHO-DG44, 120 h, Table 2
[7] = Table 1, inhibition of core fucosylation of h1F6
[8] = Table 1, ND = non-core fucosylated antibody not detected due to poor antibody production or inhibition of cell growth

Structure (SMILES)	inhibition at 50 µM [1, 3] [%]	inhibition at 1000 µM [1, 4] [%]	inhibition at 50 µM [1, 5] [%]	inhibition at 1000 µM [1, 6] [%]	further results
C#C[C@@H]1OC(OC(=O)c2cccnc2)[C@@H](OC(=O)c2cccnc2)[C@H](OC(=O)c2cccnc2)[C@@H]1OC(=O)c1cccnc1 (stereo partly drawn) [Alkynyl fucose pemicotinate, (3S,4R,5R,6S)-6-ethynyl-tetrahydro-2H-pyran-2,3,4,5-tetrayl Tetranicotinate]	> 80	> 80			
CC(=O)O[C@H]([C@H](OC(C)=O)[C@H](CBr)OC(C)=O)[C@@H](C=O)OC(C)=O [6-bromo-fucose tetraacetate, 6-bromofucose tetraacetate]	50	80			% Incorporation ([2]; 50 uM): ~50%; % Incorporation ([2]; 1 mM): (50 uM; 20% at 1 mM)
C=C=C[C@@H]1OC(OC(C)=O)[C@@H](OC(C)=O)[C@H](OC(C)=O)[C@@H]1OC(C)=O (stereo partly drawn) [Allene, (3S,4R,5R,6S)-6-(propa-1,2-dienyl)-tetrahydro-2H-pyran-2,3,4,5-tetrayl Tetraacetate]			23	34	
CC(=O)OC1O[C@@H](C(F)F)[C@@H](OC(C)=O)[C@@H](OC(C)=O)[C@@H]1OC(C)=O (stereo partly drawn) [6,6-difluorofucose tetraacetate, (3S,4R,5S,6R)-6-(difluoromethyl)tetrahydro-2H-pyran-2,3,4,5-tetrayl Tetraacetate]			> 80	> 80	
CC(=O)O[C@H]([C@H](OC(C)=O)[C@H](CCl)OC(C)=O)[C@@H](C=O)OC(C)=O [6-chloro-fucose tetraacetate, 6-chlorofucose tetraacetate]	20	20 to 30			
C#C[C@@H]1OC(OC(=O)C(C)C)[C@@H](OC(=O)C(C)C)[C@H](OC(=O)C(C)C)[C@@H]1OC(=O)C(C)C (stereo partly drawn) [Alkynyl fucose perisobutanoate, (3S,4R,5R,6S)-6-ethynyl-tetrahydro-2H-pyran-2,3,4,5-tetrayl tetrakis(2-methylpropanoate)]	> 80	> 80			
C#CC(OC(=O)CCCCC)[C@@H](OC(=O)CCCCC)[C@@H](OC(=O)CCCCC)[C@@H](C=O)OC(=O)CCCCC (stereo partly shown) [Alkynyl fucose tetra-n-hexanoate, 5-ethynylarabinose tetrahexanoate]	> 80	> 80			
C#CC(O)[C@@H](O)[C@@H](O)[C@H](O)C=O (stereo partly shown) [Alkynyl fucose, 5-ethynylarabinose]	> 80				
C#CC1OC(OC(=O)C(C)(C)C)C(O)C(OC(=O)C(C)(C)C)C1O (stereo not shown) [Alkynyl fucose di(trimethylacetate), 5-ethynylarabinose 1,3-(trimethylacetate)]					inhibition at 50 µM [1, 7]: >80%
CC(=O)O[C@H]([C@H](OC(C)=O)[C@H](CC#N)OC(C)=O)[C@@H](C=O)OC(C)=O [6-cyano fucose tetraacetate, 6-cyanofucose tetraacetate]	30	> 80			
C#C[C@H](OC(C)=O)[C@H]1OC(OC)[C@@H](OC(C)=O)[C@@H]1OC(C)=O (stereo partly drawn) [1-methyl-2,3,4-triacetyl alkynyl fucose, (2R,3R,4S)-2-((S)-1-acetoxyprop-2-ynyl)-5-methoxy-tetrahydrofuran-3,4-diyl Diacetate]	68	> 80			
CC(=O)OC1O[C@@H](COCc2ccccc2)[C@@H](OC(C)=O)[C@@H](OC(C)=O)[C@@H]1OC(C)=O (stereo partly drawn) [5-Benzyloxy fucose peracetate, (3S,4R,5R,6S)-6-(benzyloxymethyl)tetrahydro-2H-pyran-2,3,4,5-tetrayl tetraacetate]			0	75	
C#C[C@@H]1OC(OC(=O)CCOCCOC)[C@@H](OC(=O)CCOCCOC)[C@H](OC(=O)CCOCCOC)[C@@H]1OC(=O)CCOCCOC (stereo partly drawn) [Alkynyl fucose per-PEG ester, (3S,4R,5R,6S)-6-ethynyl-tetrahydro-2H-pyran-2,3,4,5-tetrayl tetrakis(3-(2-methoxyethoxy)propanoate)]	> 80	> 80			
CC(=O)OC1O[C@@H](C)[C@@H](OC(C)=O)[C@@H](OC(C)=O)[C@@H]1F (stereo partly drawn) [2-deoxy-2-fluorofucose peracetate, (3S,4R,5R,6S)-3-fluoro-6-methyl-tetrahydro-2H-pyran-2,4,5-triyl Triacetate]			> 80	> 80	
C=CC1OC(OC(C)=O)C(OC(C)=O)C(OC(C)=O)C1OC(C)=O (stereo not shown) [5-vinyl fucose tetraacetate, 5-ethylenylarabinose tetraacetate]					inhibition at 50 µM [1, 7]: ~0%; Inhibition at 1 mM [1, 8]: ~4%
CC(=O)O[C@H]([C@H](OC(C)=O)[C@H](CI)OC(C)=O)[C@@H](C=O)OC(C)=O [6-iodo-fucose tetraacetate, 6-iodofucose tetraacetate]	3	30			
CC(=O)OC1C(C)OC(F)C(F)C1OC(C)=O (stereo not shown) [1,2-difluoro-1,2-didexoy fucose peracetate]					inhibition at 50 µM ([1]; Table 2): >80%; Inhibition at 1 mM ([1]; Table 2): >80%
C#CC1OC(OC(=O)C(C)(C)C)C(OC(=O)C(C)(C)C)C(OC(=O)C(C)(C)C)C1O (stereo not shown) [Alkynyl fucose 1,2,3-(trimethylacetate), 5-ethynylarabinose 1,2,3-(trimethylacetate)]					inhibition at 50 µM [1, 7]: ~0%
CC(=O)OC1O[C@@H]([C@]2(C)CO2)[C@@H](OC(C)=O)[C@@H](OC(C)=O)[C@@H]1OC(C)=O (stereo partly drawn) [5-methyloxiran-arabinose tetraacetate, (3S,4R,5S,6R)-6-((S)-2-methyloxiran-2-yl)-tetrahydro-2H-pyran-2,3,4,5-tetrayl tetraacetate]	~0	35 to 40			
CC(=O)O[C@@H]1[C@H](C)O[C@H](OC(C)=O)C(F)(F)[C@@H]1OC(C)=O [(2R,4R,5R,6S)-3,3-difluoro-6-methyl-tetrahydro-2H-pyran-2,4,5-triyl Triacetate]			0	75	
CC(=O)OC1O[C@@H](C)[C@@H](OC(C)=O)[C@@H](OC(C)=O)[C@@H]1Cl (stereo partly drawn) [2-deoxy-2-chlorofucose triacetate, L-2-deoxy-2-chlorofucopyranose-1,3,4-triacetate]			17	> 80	
CC(=O)O[C@H]1C[C@H](OC(C)=O)[C@H](OC(C)=O)[C@H](C)O1 [(2S,4S,5R,6S)-6-methyl-tetrahydro-2H-pyran-2,4,5-triyl Triacetate]			0	36	
CC(=O)OC(C#N)[C@H]1OC(OC(C)=O)[C@@H](OC(C)=O)[C@@H]1OC(C)=O (stereo partly shown) [5-cyanoarabinofuranose tetraacetate]	5 to 10				
CC#CC(OC(C)=O)[C@@H](OC(C)=O)[C@@H](OC(C)=O)[C@@H](C=O)OC(C)=O (stereo partly shown) [5-propynyl fucose tetraacetate, 5-propynylarabinose tetraacetate]	50	> 80			
C[C@H](O)[C@@H](O)[C@@H](O)[C@H](F)C=O [2-deoxy-2-fluorofucose]			> 80	> 80	
C#C[C@@H]1OC(OC(=O)CC)[C@@H](OC(=O)CC)[C@H](OC(=O)CC)[C@@H]1OC(=O)CC (stereo partly shown) [Alkynyl fucose tetrapropanonate, 5-ethynylarabinose tetrapropropanoate]					inhibition at 50 µM [1, 7]: >80%; Inhibition at 1 mM [1, 8]: >80%
C#C[C@H]1OC(OC(=O)c2ccncc2)[C@@H](OC(=O)c2ccncc2)[C@H](OC(=O)c2ccncc2)[C@@H]1OC(=O)c1ccncc1 (stereo partly drawn) [Alkynyl fucose perisonicotinate, (3S,4R,5R,6R)-6-ethynyl-tetrahydro-2H-pyran-2,3,4,5-tetrayl Tetraisonicotinate]	> 80	> 80			
CC(=O)OC1OC(C#N)[C@@H](OC(C)=O)[C@@H](OC(C)=O)[C@@H]1OC(C)=O (stereo partly shown) [5-cyanoarabinopyranose tetraacetate]	20				
CC(=O)O[C@@H]1[C@H](C)O[C@@H](OC(C)=O)C(F)(F)[C@@H]1OC(C)=O [(2S,4R,5R,6S)-3,3-difluoro-6-methyl-tetrahydro-2H-pyran-2,4,5-triyl Triacetate]			0	64	
